Reference: article PMC3946379 (Archives of biochemistry and biophysics, 2013)

Target: Aspartate aminotransferase (AAT) (Escherichia coli, UniProt P00509)
Assay: N-15 NMR of crystalline enzyme
Type: binding
Conditions: PLP form, low pH; closed conformation; own earlier work reviewed

Aspartate aminotransferase (AAT), sequence (P00509 whole entry): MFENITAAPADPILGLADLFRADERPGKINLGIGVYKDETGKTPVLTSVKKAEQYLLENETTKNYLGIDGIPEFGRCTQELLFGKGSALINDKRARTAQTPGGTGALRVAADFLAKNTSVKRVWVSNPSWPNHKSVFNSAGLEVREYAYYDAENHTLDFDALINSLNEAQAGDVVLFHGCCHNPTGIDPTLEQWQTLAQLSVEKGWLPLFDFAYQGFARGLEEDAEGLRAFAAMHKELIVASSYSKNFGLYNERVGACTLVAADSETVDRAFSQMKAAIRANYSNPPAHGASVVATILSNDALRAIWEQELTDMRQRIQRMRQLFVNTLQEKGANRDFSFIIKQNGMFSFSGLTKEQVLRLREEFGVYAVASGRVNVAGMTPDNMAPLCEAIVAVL

O=C(O)/C=C\C(=O)O [maleate]
N-15 NMR of crystalline enzyme: In crystalline samples of both the unliganded and maleate-liganded enzyme forms at low pH
